The target of the experiment is T1, Xylosyl- and glucuronyltransferase LARGE1 (Homo sapiens, UniProt O95461).
T1 sequence (O95461 whole entry): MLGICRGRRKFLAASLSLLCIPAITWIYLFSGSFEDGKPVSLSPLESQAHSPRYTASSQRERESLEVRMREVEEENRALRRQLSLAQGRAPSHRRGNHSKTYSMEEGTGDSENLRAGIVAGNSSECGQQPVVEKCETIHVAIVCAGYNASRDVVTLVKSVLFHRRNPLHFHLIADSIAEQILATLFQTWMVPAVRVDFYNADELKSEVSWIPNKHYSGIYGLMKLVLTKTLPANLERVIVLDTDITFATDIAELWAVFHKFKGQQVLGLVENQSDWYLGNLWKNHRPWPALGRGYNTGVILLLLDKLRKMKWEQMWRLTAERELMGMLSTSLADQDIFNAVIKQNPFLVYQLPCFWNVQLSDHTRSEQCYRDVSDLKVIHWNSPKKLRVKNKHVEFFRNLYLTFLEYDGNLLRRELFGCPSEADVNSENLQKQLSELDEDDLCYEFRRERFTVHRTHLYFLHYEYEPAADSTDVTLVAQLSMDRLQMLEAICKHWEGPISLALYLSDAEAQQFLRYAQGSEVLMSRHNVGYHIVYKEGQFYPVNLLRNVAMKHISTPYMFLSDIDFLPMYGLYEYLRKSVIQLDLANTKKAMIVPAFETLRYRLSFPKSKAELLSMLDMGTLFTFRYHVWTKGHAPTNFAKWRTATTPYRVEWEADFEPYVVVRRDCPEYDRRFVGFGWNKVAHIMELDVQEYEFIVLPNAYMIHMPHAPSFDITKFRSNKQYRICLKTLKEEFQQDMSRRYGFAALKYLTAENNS

What is called EC50 is the concentration needed to bring the measured effect to its halfway point. Read a low EC50 as greater potency.

`Oc1c(Cl)c(N=Cc2ccco2)c(O)c2ccccc12` [2-chloranyl-3-(furan-2-ylmethylamino)naphthalene-1,4-dione] had an EC50 of 4.97 µM.

(Values after BindingDB's records for doi:10.7270/Q2VT1QQ4 (Burnham Center For Chemical Genomics, 2012).)
